The structures appear in SMILES notation.

A short description of data set [1]: Clinical study safety: alanine aminotransferase in subjects' blood. Type of data set: in vivo, human. The note with it: combined placebo + Compound 1 patients; for Mean Concentration of Alanine Aminotransferase in Subjects' Blood: Baseline 22.4. From the text:
(§1) The study was configured as a placebo-controlled, double-masked, randomized, Phase 2 study in approximately 100 subjects with moderately severe to severe NPDR (diabetic retinopathy severity score [DRSS] Level 47 or 53, see FIG. 1) or mild PDR (DRSS Level 61), evaluating safety and efficacy following administration of Compound 1 twice daily for 24 weeks. The study was configured for a 1:1 randomization (placebo: Compound 1). Randomization was stratified by level of disease severity (NPDR or PDR). Subjects with mild PDR were capped at 20% for each arm. Efficacy evaluations at 12 and/or 24 weeks included DRSS, center-involved diabetic macular edema (DME), moderate PDR or PDR-related adverse events (AEs), best-corrected visual acuity (BCVA), and central subfield thickness (CST). Further experimental procedures and results are described below.
(§2) At the Qualification/Baseline (Visit 2, Day 1): • The subject was randomized into the study. • Study medication was dispensed in accordance with the subjects randomized treatment arm. • Blood samples were drawn pre-dose for baseline levels and on Visit 9 (Week 24) for exploratory biomarker processing (i.e., cytokine and Ref-1 levels) to evaluate pharmacodynamic properties. • Subjects were instructed to administer their study medication (Compound 1 or placebo) each day, with 3 tablets every morning and 2 tablets every evening. Study medication was to be taken at approximately the same time each day and may be taken with or without food.
(§3) At the Second Treatment Visit (Visit 6, Week 12±2 Days), subjects were to return to the site for the following series of safety and efficacy assessments: drug accountability, concomitant medications, urine pregnancy test (only for women of childbearing potential), HR/BP/vital signs, BCVA (ETDRS), DRSS, CST (SD-OCT), blood draw for PK, blood chemistry, blood hematology, biomicroscopy, ophthalmoscopy, IOP, eGFR, and AEs. Following the completion of the assessments, used medication kits were collected for accountability (by counting the number of unused tablets), and new study medication kits dispensed.
(§4) At the Third Treatment Visit (Visit 9, Week 24±2 Days), subjects were to return to the site for the following series of safety and efficacy assessments: drug accountability, concomitant medications, urine pregnancy test (only for women of childbearing potential), physical examination, HR/BP/vital signs, BCVA (ETDRS), DRSS, CST (SD-OCT), blood chemistry, blood hematology, biomicroscopy, ophthalmoscopy, IOP, eGFR, AEs, and blood draw for exploratory biomarkers (ELISA, cytokine panel, comprehensive metabolic panel). Visit 9 (Week 24) was the end of the treatment period. Study medication was returned for accountability (by counting the number of unused tablets), and no further study medication dispensed.
(§5) Safety endpoints include: • Incidence and severity of systemic and ocular AEs, • Change from baseline in body system assessments, • Change from baseline in vital sign measurements, • Change from baseline in clinical laboratory assay results (blood chemistry, hematology), • Change from baseline in intraocular pressure (IOP), • Change from baseline in slit-lamp examination parameters, • Change from baseline in dilated funduscopic examination parameters, • Percent of subjects with a decrease of ≥10 letters in BCVA compared to baseline at Week 12 and Week 24, • Percent of subjects progressing to center-involved DME (eligible for rescue treatment at Week 12 and Week 24), • Percent of subjects with a worsening in DRSS of ≥2 steps in the study eye at Week 12 and Week 24, • Percent of subjects developing anterior segment neovascularization at Week 12 and Week 24, • Percent of subjects rescued (intravitreal anti-VEGF injection, laser PRP, focal/grid laser treatment, or surgery [vitrectomy]) at the discretion of the Investigator at Week 12 and Week 24, and • Change from baseline in estimated glomerular filtration rate (eGFR) at Week 12 and Week 24. […]

Data set [2] is described as follows: Clinical study safety: diastolic blood pressure. Type of data set: in vivo, human. The note with it: combined placebo + Compound 1 patients; for Mean Diastolic Blood Pressure: Baseline 80.3.
Text: as §1, §2, §3, §4, §5

`CCCCCCCCC/C(=C\C1=C(C)C(=O)C(OC)=C(OC)C1=O)C(=O)O` [Compound 1, (E)-2-((4,5-dimethoxy-2-methyl-3,6-dioxocyclohexa-1,4-dien-1-yl)methylene)undecanoic acid]: the “Mean Concentration of Alanine Aminotransferase in Subjects' Blood” value came out at 21.6 IU/L in data set [1] (Week 12, 53 subjects) and 20.4 IU/L in data set [1] (Week 24, 24 subjects). In addition, the “change in mean concentration of alanine aminotransferase relative to Baseline” value is −0.8 IU/L in data set [1] (week 12, 50 subjects) and −2.1 IU/L in data set [1] (week 24, 22 subjects). For the same molecule, the “reduction in mean concentration of alanine aminotransferase relative to Baseline” value in data set [1] (week 12, 50 subjects) turned out to be 3.6%; in data set [1] (week 24, 22 subjects), 9.4%. Further, the “Mean Diastolic Blood Pressure” value in data set [2] (Week 12, 62 subjects) stood at 77.1 mmHg; in data set [2] (Week 24, 27 subjects) it was 80.4 mmHg. Further, the “change in mean diastolic blood pressure relative to Baseline” value in data set [2] (week 12, 62 subjects) is −2.8 mmHg; in data set [2] (week 24, 27 subjects) it was “+1 mmHg”. Also, the “reduction in mean diastolic blood pressure relative to Baseline” value in data set [2] (week 12, 62 subjects) is reported as 3%. In addition, the “increase in mean diastolic blood pressure relative to Baseline” value in data set [2] (week 24, 27 subjects) turned out to be 1%.
